Test system: 5/6 nephrectomy rats with chronic renal failure
Assay: Effect on renal function of 5/6 nephrectomy (5/6 Nx) rats with chronic renal failure
Format: in vivo, rat
Conditions: 5/6 Nx Wistar rats, 0.2 mg/kg po once per day for 6 weeks
Method: Test Example 8: Test for Investigation of Effect on Renal Function of 5/6 Nephrectomy (5/6 Nx) of Rats with Chronic Renal Failure
Wistar rats (male, 8-Week-old) were used for the test. Two-thirds of the left kidney was removed under pentobarbital anesthesia, and after 1 week, the entire right kidney was nephrectomized (5/6 Nx). After 2 weeks from 5/6 Nx, the protein concentrations in urine samples obtained by urine collection for 24 hours were measured using a Bio-Rad Protein assay kit, and the creatinine concentration in urine was measured using Determiner L CRE (Kyowa Medex Co., Ltd.)). The urinary protein-creatinine ratio (UPCR) was calculated, and a group (n=12) not treated with the test compound and a group (n=12) treated with the test compound were allocated without a bias in UPCR. The test compound suspended in a 0.5% MC solution was orally administered to the group treated with the test compound at a dose of 0.2 mg/kg once per day for 6 weeks (5 mL/kg). […] Urine was collected for 24 hours from the completion of the final administration, and using the calculated UPCR as an indicator, the improvement effect of the test compound on the nephropathy of the rat with chronic renal failure was investigated. The inhibitory rate of UPCR of the group treated with the test compound when the UPCR value of the group not treated with the test compound was taken as 100% was determined.

Cc1nn(Cc2cc3ccccc3cn2)c(C(=O)N[C@@H](C)c2ccc(C(=O)O)cc2)c1Br [Compound A, 4-[(1S)-1-({[4-bromo-1-(isoquinolin-3-ylmethyl)-3-methyl-1H-pyrazol-5-yl]carbonyl}amino)ethyl]benzoic acid]
Inhibitory rate of UPCR (urinary protein-creatinine ratio): 47%
